The values that follow come from ChEMBL document CHEMBL1201862, “PubChem BioAssay data set” (2004).

Holding throughout (test): NCI-60 cell line screen, 48 h
The subject of assay [1] is OVCAR-5.
Assay [2] deals with A549.
The test system of assay [3] is HCC 2998.
Assay [4] relates to SK-OV-3.
The test system of assay [5] is OVCAR-8.
The subject of assay [6] is HCT-116.
For assay [7], the system named is Malme-3M.
For assay [8], the system named is NCI/ADR-RES.
For assay [9], the system named is NCI-H23.
Assay [10] concerns MDA-MB-435.
The subject of assay [11] is CAKI-1.
The subject of assay [12] is OVCAR-3.
Assay [13] concerns SF-539.
The subject of assay [14] is U-251.
Assay [15] relates to T47D.
For assay [16], the system named is HOP-62.
Assay [17] has as its system MDA-MB-231.
For assay [18], the system named is SK-MEL-28.
The test system of assay [19] is LOX IMVI.
The test system of assay [20] is BT-549.

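Tested at 5 concentrations; 48 h exposure; 96-well plates; endpoints linearly interpolated, else capped at highest concentration. GI50 marks 50% less growth.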 Active and inactive are the calls of the source. Cut-off read from the data, not from the text of the source: active = GI50 up to about 1.1 µM and inactive = higher. Some results are limits rather than exact numbers.

Turning to `NCCSCC(N)C(=O)O` (stereo not given), the GI50 in assay [1] is > 497 µM (inactive); in [2], 47.6 µM (inactive); in [3], > 497 µM (inactive); in assay [4], > 497 µM (inactive); in [5], > 497 µM (inactive); in assay [6], 39.7 µM (inactive). Moreover, the GI50 is > 66.2 µM (inactive) in assay [7]; > 100 µM (inactive) in assay [8]; > 497 µM (inactive) in assay [9]; 51.2 µM (inactive) in [10]; > 100 µM (inactive) in assay [11]; > 64.9 µM (inactive) in assay [12]. In addition, the GI50 in [13] was > 497 µM (inactive); in assay [14], > 497 µM (inactive); in assay [15], > 83 µM (inactive); in [16] it was > 497 µM (inactive); in [17], > 100 µM (inactive); in [18], > 497 µM (inactive). Further, the results for the GI50 in assay [19] and in assay [20] were > 497 µM (inactive) and > 100 µM (inactive), respectively.
As for `CNC(=O)OCCN1c2ccccc2Sc2ccccc21`, the GI50 in [1] was > 100 µM (inactive); in [2] it was 87.1 µM (inactive); in assay [3], > 100 µM (inactive); in [4], > 100 µM (inactive); in assay [5], > 100 µM (inactive); in assay [6], 74 µM (inactive). Also, the GI50 was > 100 µM (inactive) in [7]; > 100 µM (inactive) in assay [8]; > 100 µM (inactive) in [9]; > 100 µM (inactive) in assay [10]; 36.4 µM (inactive) in assay [11]; 63.2 µM (inactive) in assay [12]. In addition, the GI50 is > 100 µM (inactive) in [13]; > 100 µM (inactive) in assay [14]; > 100 µM (inactive) in [15]; 14.1 µM (inactive) in assay [16]; 0.64 µM (active) in assay [17]; > 100 µM (inactive) in assay [18]. Besides, the figures for the GI50 in assay [19] and in [20] were 91.6 µM (inactive) and > 100 µM (inactive), respectively.
Consider `CC(C)(C)NC1C2CCC(C)(C1O)C2(C)C` (stereo not given), for which the GI50 in [1], in assay [2], in assay [3], in assay [4], in [5] and in assay [6] was > 100 µM (inactive) in each case. Further, the GI50 in assay [7], in assay [8], in assay [9], in assay [10], in assay [11] and in assay [12] was > 100 µM (inactive) each time. In addition, the GI50 in assay [13], in assay [14], in assay [15], in assay [16], in assay [17] and in assay [18] was > 100 µM (inactive) in each case. In addition, the GI50 in [19] and in assay [20] was > 100 µM (inactive) each time.
For the compound `COC1=CC(=O)c2c(cc(COP(N)(=O)N(CCCl)CCCl)n2C)C1=O` (stereo not given), the GI50 in assay [1] was 1.26 µM (inactive); in assay [2] it was 0.918 µM (active); in assay [3], 0.446 µM (active); in assay [4], 1.02 µM (active); in assay [5], 0.433 µM (active); in [6], 0.122 µM (active). Further, the GI50 in assay [7] was 1.4 µM (inactive); in assay [8], 3.29 µM (inactive); in assay [9], 0.7 µM (active); in [10], 1.61 µM (inactive); in assay [11], < 0.0158 µM (active); in [12] it was 0.342 µM (active). Also, the GI50 in [13] is 0.0785 µM (active); in assay [14] it was 0.0822 µM (active); in assay [15], < 0.0486 µM (active); in [16] it was 2.18 µM (inactive); in assay [17] it was 2.33 µM (inactive); in assay [18], 2.9 µM (inactive). Further, the GI50 in assay [19] was 0.0284 µM (active); in assay [20] it was 0.471 µM (active).
As for `CCCCCNC1=CC(=O)c2ccccc2C1=O`, the GI50 was > 100 µM (inactive) in [1]; 42.8 µM (inactive) in assay [2]; > 78.2 µM (inactive) in [3]; > 51.4 µM (inactive) in assay [4]; 23 µM (inactive) in assay [5]; 22.9 µM (inactive) in assay [6]. Besides, the GI50 was 34.5 µM (inactive) in assay [7]; 45.3 µM (inactive) in [8]; 24.3 µM (inactive) in [9]; > 100 µM (inactive) in [10]; 33.7 µM (inactive) in assay [11]; 22.5 µM (inactive) in assay [12]. The GI50 in assay [13] was 20.6 µM (inactive); in assay [14], 17.5 µM (inactive); in assay [15], 27.5 µM (inactive); in [16], 23.9 µM (inactive); in [17] it was 19.4 µM (inactive); in assay [18], > 100 µM (inactive). Besides, the GI50 was 22.6 µM (inactive) in assay [19] and 19.5 µM (inactive) in [20].
Consider `C[C@H](c1ccccc1)n1c(N)c(-c2nc3ccccc3s2)c2ccc([N+](=O)[O-])cc2c1=O`, for which the GI50 in [1] is 11.5 µM (inactive); in assay [2], 9.98 µM (inactive); in [3] it was 4.4 µM (inactive); in assay [4], 8.99 µM (inactive); in [5] it was 3.83 µM (inactive); in [6], 1.91 µM (inactive). For the same compound, the GI50 is 12.9 µM (inactive) in [7]; 2.84 µM (inactive) in assay [8]; 1.87 µM (inactive) in assay [9]; 9.66 µM (inactive) in assay [10]; 15.4 µM (inactive) in assay [11]; 4.57 µM (inactive) in assay [12]. Moreover, the GI50 was 16.9 µM (inactive) in assay [13]; 3.66 µM (inactive) in assay [14]; 1.58 µM (inactive) in assay [15]; 11.6 µM (inactive) in assay [16]; 3.89 µM (inactive) in assay [17]; 3 µM (inactive) in [18]. Further, the GI50 is 4.46 µM (inactive) in [19] and 11.5 µM (inactive) in assay [20].
As for `COc1cc2c(cc1Cl)[n+]([O-])c(C#N)c(N1CCN(c3ccc([N+](=O)[O-])cc3)CC1)[n+]2[O-]`, the GI50 was 67.8 µM (inactive) in assay [1]; 11.6 µM (inactive) in [2]; 19.1 µM (inactive) in [3]; 23.9 µM (inactive) in assay [4]; 7.28 µM (inactive) in [5]; 24 µM (inactive) in assay [6]. Also, the GI50 in assay [7] was 14.8 µM (inactive); in [8], 15.5 µM (inactive); in [9], 17.1 µM (inactive); in assay [10], 19.5 µM (inactive); in assay [11], 48.5 µM (inactive); in assay [12] it was 52.6 µM (inactive). The GI50 is 10.8 µM (inactive) in [13]; 7.78 µM (inactive) in assay [14]; 3.48 µM (inactive) in assay [15]; 8.34 µM (inactive) in assay [16]; 41.8 µM (inactive) in assay [17]; 34.8 µM (inactive) in assay [18]. The GI50 was 4.68 µM (inactive) in assay [19] and 15 µM (inactive) in assay [20].
